These molecules were tested against Serine/threonine-protein kinase PLK1 (Homo sapiens, UniProt P53350) (assay: redox cycling hydrogen peroxide generation, dose response, artefact control for Plk1 PBD inhibitor project, biochemical, 1 mM DTT (AID 936)).
Sequence of Serine/threonine-protein kinase PLK1 (P53350 whole entry): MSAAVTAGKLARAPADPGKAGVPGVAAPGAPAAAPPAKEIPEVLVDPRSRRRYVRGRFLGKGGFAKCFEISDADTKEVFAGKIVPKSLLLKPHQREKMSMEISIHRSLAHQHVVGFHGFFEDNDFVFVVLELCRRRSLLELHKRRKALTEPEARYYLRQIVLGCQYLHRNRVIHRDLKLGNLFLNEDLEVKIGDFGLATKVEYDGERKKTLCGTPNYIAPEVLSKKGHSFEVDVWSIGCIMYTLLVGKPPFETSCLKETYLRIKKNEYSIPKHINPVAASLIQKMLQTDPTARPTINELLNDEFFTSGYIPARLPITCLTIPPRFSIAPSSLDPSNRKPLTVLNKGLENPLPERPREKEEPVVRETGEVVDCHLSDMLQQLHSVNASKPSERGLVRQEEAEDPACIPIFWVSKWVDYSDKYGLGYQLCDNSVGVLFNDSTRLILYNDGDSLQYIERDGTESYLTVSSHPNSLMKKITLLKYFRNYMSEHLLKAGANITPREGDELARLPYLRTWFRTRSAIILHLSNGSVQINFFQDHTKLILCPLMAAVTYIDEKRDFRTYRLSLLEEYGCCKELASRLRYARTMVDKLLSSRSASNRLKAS

Q: For `c1ccc(NCc2nnc3n2CCCCC3)cc1` [MLS000057041], which EC50 is on record?
A: > 50 µM

Q: Which EC50 does the source give for `O=C(NCCc1ccccc1)/C(=C\c1ccc([N+](=O)[O-])cc1)NC(=O)c1ccccc1` [MLS000575866] here?
A: > 50 µM

Q: For `C/C(=C\C(=O)Nc1cc(C)on1)c1ccccc1` [(E)-N-(5-methyl-1,2-oxazol-3-yl)-3-phenyl-but-2-enamide], which EC50 is on record?
A: > 50 µM

Q: How did the EC50 turn out when `O=C(Nc1nc2ccccc2s1)c1cc2c(s1)-c1ccccc1OC2` [MLS000522634] was run?
A: > 50 µM

Q: How did the EC50 turn out when `O=C(CN1C(=O)COc2ccccc21)NCc1ccc(C(=O)O)cc1` [4-[[2-(3-oxidanylidene-1,4-benzoxazin-4-yl)ethanoylamino]methyl]benzoic acid] was run?
A: > 50 µM

Q: `CC(C)(C)NC(=O)CC(CC(=O)O)c1ccccc1` (centres undefined) [5-(tert-butylamino)-5-keto-3-phenyl-valeric acid] was tested. Which EC50 did it give?
A: > 50 µM

Q: With `Cc1[nH]n2c(=O)cc(-c3ccc([N+](=O)[O-])cc3)nc2c1-c1ccccc1` [MLS000547439] as the molecule, how does the EC50 read?
A: > 50 µM

Q: For `Cc1ccccc1Oc1ncnc2oc(-c3ccccc3)cc12` [4-(2-methylphenoxy)-6-phenyl-furo[2,3-d]pyrimidine], which EC50 is on record?
A: > 50 µM

Q: With `O=[N+]([O-])c1ccc(N2CCNCC2)cc1NCC1CCCO1` (centres undefined) [(2-nitro-5-piperazino-phenyl)-(tetrahydrofurfuryl)amine] as the molecule, how does the EC50 read?
A: > 50 µM

Q: `Cc1ccc(NC2=CC(=NS(=O)(=O)c3cccs3)c3ccccc3C2=O)c(C)c1` was tested. Which EC50 did it give?
A: > 50 µM

Q: `CCOC(=O)c1cc2n(c1N)-c1ccccc1C2=O` [1-amino-4-keto-pyrrol[1,2-a]indole-2-carboxylic acid ethyl ester] was tested. Which EC50 did it give?
A: > 50 µM

Q: For `COC(=O)c1ccccc1NC1=CC(=NS(=O)(=O)c2cccs2)c2ccccc2C1=O` [methyl 2-[[(4E)-1-oxidanylidene-4-thiophen-2-ylsulfonylimino-naphthalen-2-yl]amino]benzoate], which EC50 is on record?
A: > 50 µM

Q: Which EC50 does the source give for `O=C1Nc2ccc([N+](=O)[O-])cc2C1(O)N1CCCCC1` (centres undefined) [3-hydroxy-5-nitro-3-(1-piperidinyl)-1,3-dihydro-2H-indol-2-one] here?
A: > 50 µM

Q: How did the EC50 turn out when `Cc1cccc(-n2c(CCn3nc(C)c([N+](=O)[O-])c3C)n[nH]c2=S)c1` [3-(2-{4-nitro-3,5-dimethyl-1H-pyrazol-1-yl}ethyl)-4-(3-methylphenyl)-5-sulfanyl-4H-1,2,4-triazole] was run?
A: > 50 µM

Q: `COc1cccc(OC)c1C(=O)N1CCN(c2ccccn2)CC1` [(2,6-dimethoxyphenyl)-(4-pyridin-2-ylpiperazin-1-yl)methanone] was tested. Which EC50 did it give?
A: > 50 µM

Q: For `O=C1CCN2C=Nc3cccc4ccc1c2c34` [7,8-dihydro-9H-pyrido[1,2,3-cd]perimidin-9-one], which EC50 is on record?
A: > 50 µM

Q: With `CCN1C(=O)/C(=C/c2nc3ccccc3c(=O)n2-c2ccccc2)c2ccccc21` [2-[(1-ethyl-2-oxo-1,2-dihydro-3H-indol-3-ylidene)methyl]-3-phenyl-4(3H)-quinazolinone] as the molecule, how does the EC50 read?
A: > 50 µM

Q: How did the EC50 turn out when `O=C(O)C1CCCCC1C(=O)Nc1ccc2c(c1)OCCO2` (centres undefined) [2-(2,3-dihydro-1,4-benzodioxin-6-ylcarbamoyl)cyclohexane-1-carboxylic acid] was run?
A: > 50 µM

Q: With `NC(=O)Cn1c(S(=O)(=O)Cc2ccccc2)nc2ccccc21` [2-(2-benzylsulfonylbenzimidazol-1-yl)acetamide] as the molecule, how does the EC50 read?
A: > 50 µM

Q: Which EC50 does the source give for `O=C1CN(c2ccc(Br)cc2)C(=O)N1CC(=O)N1CCCc2ccccc21` [1-(4-bromophenyl)-3-[2-(3,4-dihydro-1(2H)-quinolinyl)-2-oxoethyl]-2,4-imidazolidinedione] here?
A: > 50 µM

Q: Which EC50 does the source give for `Cc1ccc(-n2c(O)c(C=NCCN3CCOCC3)c(=O)[nH]c2=O)cc1` here?
A: > 50 µM

Q: With `CCOCCCNC(=O)CCCOc1ccccc1` [MLS000088375] as the molecule, how does the EC50 read?
A: > 50 µM

Q: How did the EC50 turn out when `CCCSc1nc(N2CCOCC2)c2c(c1C#N)CCCC2` [1-(4-morpholinyl)-3-(propylthio)-5,6,7,8-tetrahydroisoquinoline-4-carbonitrile] was run?
A: > 50 µM

Q: For `O=C(Nc1cccn(Cc2c(Cl)cccc2Cl)c1=O)c1c(Cl)cccc1Cl` [2,6-dichloro-N-[1-(2,6-dichlorobenzyl)-2-keto-3-pyridyl]benzamide], which EC50 is on record?
A: > 50 µM

Q: Which EC50 does the source give for `CC(C)Nc1nnc(SCC(=O)c2c(N)n(Cc3ccccc3)c(=O)n(C)c2=O)s1` [6-amino-1-benzyl-3-methyl-5-[2-[[5-(propan-2-ylamino)-1,3,4-thiadiazol-2-yl]sulfanyl]acetyl]pyrimidine-2,4-dione] here?
A: > 50 µM

Q: For `CCOC(=O)c1c2c(n(C)c1C)C(=O)C(=O)c1ccc(Br)cc1-2` [8-bromo-2,3-dimethyl-4,5-dioxo-1-benzo[e]indolecarboxylic acid ethyl ester], which EC50 is on record?
A: 0.723 µM

Q: Which EC50 does the source give for `O=C(COc1ccccc1)Nc1ccc(S(=O)(=O)N2CCOCC2)cc1` [MLS000108227] here?
A: > 50 µM

Q: Which EC50 does the source give for `COc1ccc(CC2NCCC3(O)CCCCC23)cc1` (centres undefined) [1-(4-Methoxy-benzyl)-octahydro-isoquinolin-4a-ol] here?
A: > 50 µM

Q: With `CCCc1nc2sc3c(c2c(=O)n1NC(=O)CCC(=O)O)CCCC3` [4-keto-4-[(4-keto-2-propyl-5,6,7,8-tetrahydrobenzothiopheno[2,3-d]pyrimidin-3-yl)amino]butyric acid] as the molecule, how does the EC50 read?
A: > 50 µM

Q: For `Cc1ccc(C(=O)Nc2cnc3sc(C)nn3c2=O)cc1` [4-methyl-N-(2-methyl-5-oxidanylidene-[1,3,4]thiadiazolo[3,2-a]pyrimidin-6-yl)benzamide], which EC50 is on record?
A: > 50 µM

Q: With `CS(=O)(=O)N1CCN(C/C=C/c2ccccc2)CC1` [1-(methylsulfonyl)-4-(3-phenyl-2-propen-1-yl)piperazine] as the molecule, how does the EC50 read?
A: > 50 µM

Q: With `CCn1cnc2sc(C(=O)N3CCN(c4ccc(OC)cc4)CC3)c(C)c2c1=O` [3-ethyl-6-[4-(4-methoxyphenyl)piperazin-1-yl]carbonyl-5-methyl-thieno[2,3-d]pyrimidin-4-one] as the molecule, how does the EC50 read?
A: > 50 µM

Q: For `CC(C)N(Cc1cc2ccccc2[nH]c1=O)C(=O)c1cccnc1` [N-[(2-oxo-1H-quinolin-3-yl)methyl]-N-propan-2-ylpyridine-3-carboxamide], which EC50 is on record?
A: > 50 µM

Q: Which EC50 does the source give for `CNC(=O)CC(C(=O)O)c1ccc(OCC(C)C)cc1` (centres undefined) [2-(4-Isobutoxy-phenyl)-N-methyl-succinamic acid] here?
A: > 50 µM

Q: How did the EC50 turn out when `CCC(=O)Nc1ccc(-c2nnc(SCC(=O)Nc3nccs3)n2C)cc1` [MLS000076456] was run?
A: > 50 µM

Q: How did the EC50 turn out when `Cn1cc(SCC(=O)Nc2ccc3c(c2)OCCO3)c2ccccc21` [MLS000529783] was run?
A: > 50 µM

Q: `O=C(Cc1ccc(Cl)cc1)NCCN1CCCC1` [2-(4-Chloro-phenyl)-N-(2-pyrrolidin-1-yl-ethyl)-acetamide] was tested. Which EC50 did it give?
A: > 50 µM

Q: Which EC50 does the source give for `O=NCc1cc(Br)ccc1OCC(=O)O` [2-[4-bromanyl-2-(hydroxyiminomethyl)phenoxy]ethanoic acid] here?
A: > 50 µM

Q: `O=C(NC(NC(=S)Nc1ccc(Cl)cc1Cl)C(Cl)(Cl)Cl)c1cccc([N+](=O)[O-])c1` (centres undefined) [3-nitro-N-[2,2,2-trichloro-1-({[(2,4-dichlorophenyl)amino]carbonothioyl}amino)ethyl]benzamide] was tested. Which EC50 did it give?
A: 28.2 µM

Q: For `CCc1nc2cc(Cl)c(Cl)cc2[nH]1` [MLS000064722], which EC50 is on record?
A: > 50 µM

Q: For `O=C(CC1C(=O)NCCN1C(=S)Nc1ccccc1)Nc1ccc2c(c1)OCCO2` (centres undefined) [2-[1-(anilinocarbonothioyl)-3-oxo-2-piperazinyl]-N-(2,3-dihydro-1,4-benzodioxin-6-yl)acetamide], which EC50 is on record?
A: > 50 µM

Q: For `Cn1nc(-c2ccc(Cl)cc2)nc2c(=O)n(C)c(=O)nc1-2` [3-(4-Chloro-phenyl)-1,6-dimethyl-1H-pyrimido[5,4-e][1,2,4]triazine-5,7-dione], which EC50 is on record?
A: > 50 µM

Q: How did the EC50 turn out when `O=C(CN1C(=O)c2ccccc2C1=O)N1CCN(c2nnc(-c3ccccc3)c3ccccc23)CC1` [2-[2-keto-2-[4-(4-phenylphthalazin-1-yl)piperazino]ethyl]isoindoline-1,3-quinone] was run?
A: > 50 µM

Q: How did the EC50 turn out when `O=C(CNS(=O)(=O)c1ccc(Br)s1)N1CCCC1` [5-bromanyl-N-(2-oxidanylidene-2-pyrrolidin-1-yl-ethyl)thiophene-2-sulfonamide] was run?
A: > 50 µM

Q: How did the EC50 turn out when `CCNC(=O)NC(=O)C(C)OC(=O)c1cccnc1SC` (centres undefined) [2-(methylthio)-3-pyridinecarboxylic acid [1-(ethylcarbamoylamino)-1-oxopropan-2-yl] ester] was run?
A: > 50 µM

Q: For `Cc1ccc(OCC(=O)Nc2ccc(N3CCOCC3)cc2)cc1` [2-(4-methylphenoxy)-N-(4-morpholin-4-ylphenyl)acetamide], which EC50 is on record?
A: > 50 µM

Q: For `Cc1ccc(Cl)cc1N1CCN(S(=O)(=O)c2ccc3c(c2)oc(=O)n3C)CC1` [6-[4-(5-chloranyl-2-methyl-phenyl)piperazin-1-yl]sulfonyl-3-methyl-1,3-benzoxazol-2-one], which EC50 is on record?
A: > 50 µM

Q: For `COc1cc(S(=O)(=O)N2CCCCCC2)ccc1-n1cnnn1` [1-(3-Methoxy-4-tetrazol-1-yl-benzenesulfonyl)-azepane], which EC50 is on record?
A: > 50 µM

Q: Which EC50 does the source give for `COc1ccccc1C1SCCN1S(=O)(=O)c1cccc(C(F)(F)F)c1` (centres undefined) [2-(2-Methoxy-phenyl)-3-(3-trifluoromethyl-benzenesulfonyl)-thiazolidine] here?
A: > 50 µM

Q: For `CC1Cc2ccccc2N1C(=O)c1ccc2c(c1)nnn2C` (centres undefined) [(1-methyl-5-benzotriazolyl)-(2-methyl-2,3-dihydroindol-1-yl)methanone], which EC50 is on record?
A: > 50 µM

Q: Which EC50 does the source give for `CC1CCCC(NC2CCCCNC2=O)C1` (centres undefined) [3-[(3-methylcyclohexyl)amino]-2-azepanone] here?
A: > 50 µM

Q: For `Cc1ccc2c(c1)CC1(CN2C)C(=O)NC(=O)N(c2ccccc2C)C1=O` (centres undefined) [1',6'-dimethyl-1-(2-methylphenyl)spiro[1,3-diazinane-5,3'-2,4-dihydroquinoline]-2,4,6-trione], which EC50 is on record?
A: > 50 µM

Q: With `COc1ccc(C(C)C)cc1S(=O)(=O)Nc1ccc(Cl)cn1` [MLS000071127] as the molecule, how does the EC50 read?
A: > 50 µM

Q: With `CC1Cn2c(nnc2-c2cc3ccccc3cc2O)S1` (centres undefined) [(3E)-3-(6-methyl-5,6-dihydro-2H-[1,3]thiazolo[2,3-c][1,2,4]triazol-3-ylidene)naphthalen-2-one] as the molecule, how does the EC50 read?
A: > 50 µM

Q: For `CC(=O)N(N=C1Sc2ccccc2C1=O)c1ccccc1` [N-[(Z)-(3-ketobenzothiophen-2-ylidene)amino]-N-phenyl-acetamide], which EC50 is on record?
A: > 50 µM

Q: For `O=c1[nH]cc(COCc2ccccc2)c(=O)[nH]1`, which EC50 is on record?
A: > 50 µM

Q: With `COc1ccc(N(C)C2=NS(=O)(=O)c3ccccc32)cc1` [(1,1-Dioxo-1H-1lambda*6*-benzo[d]isothiazol-3-yl)-(4-methoxy-phenyl)-methyl-amine] as the molecule, how does the EC50 read?
A: > 50 µM

Q: For `CCC(C)c1ccc(NC(=O)C2CC2)cc1` (centres undefined) [MLS000110184], which EC50 is on record?
A: > 50 µM

Q: Which EC50 does the source give for `COc1cc(OC)cc(C(=O)NCCCN2CCOCC2)c1` [3,5-Dimethoxy-N-(3-morpholin-4-yl-propyl)-benzamide] here?
A: > 50 µM

From BindingDB's records for doi:10.7270/Q2N58JS6 (University of Pittsburgh, 2007)
